According to publication PMC9689682, “Tenebrio molitor Proteins-Derived DPP-4 Inhibitory Peptides: Preparation, Identification, and Molecular Binding Mechanism” (Foods, 2022):

Assays:
[1] = target: T1, DPP-4 (Homo sapiens, UniProt P27487); assay: DPP-4 inhibition activity assay (Gly-Pro-p-nitroanilide substrate, OD 405 nm); type: biochemical; conditions: final concentration 1 mg/mL; n = 3; Figure 4A
T1 construct: purchased Millipore Sigma (Burlington, MA, USA)
Experimental: The inhibition of each sample on DPP-4 was assayed according to a previously described method. Briefly, 20 μL of each sample solution, 50 μL of Tris-HCl buffer (pH8.0, 100 mM), and 100 μL of substrate were mixed in a well of a 96-well plate, then incubated at 37 °C for 10 min. Afterward, the 30 μL of DPP-IV solution was added, then placed at 37 °C for 40 min incubation. Afterward, the optical density was recorded at 405 nm using a BioTek Synergy H1 microplate reader (BioTek, Winooski, VT, USA). The inhibitory effect of the samples on DPP-4 was calculated according to a previously described equation [27].

[2] = target: T1, DPP-4; conditions: Bombyx mori protein-derived peptide; cited from earlier work
Source text: GLP-1 and GIP are two crucial incretins, which have mainly contributed to the insulin response after meal intake. Suppressing the activity of DPP-4 can increase the level of active incretins, thereby decreasing blood glucose in diabetic patients. Based on the consideration of the adverse effects caused by the chemically synthesized inhibitors, some peptides with inhibitory effects on DPP-4 activity obtained from natural proteins, including milk, egg, grain, edible insects, and aquatic proteins have been widely reported. In the current study, the flavourzyme effectivel ... || It has been reported that the length and size of peptides influence their inhibitory activity against DPP-4.

T1 sequence (P27487 whole entry): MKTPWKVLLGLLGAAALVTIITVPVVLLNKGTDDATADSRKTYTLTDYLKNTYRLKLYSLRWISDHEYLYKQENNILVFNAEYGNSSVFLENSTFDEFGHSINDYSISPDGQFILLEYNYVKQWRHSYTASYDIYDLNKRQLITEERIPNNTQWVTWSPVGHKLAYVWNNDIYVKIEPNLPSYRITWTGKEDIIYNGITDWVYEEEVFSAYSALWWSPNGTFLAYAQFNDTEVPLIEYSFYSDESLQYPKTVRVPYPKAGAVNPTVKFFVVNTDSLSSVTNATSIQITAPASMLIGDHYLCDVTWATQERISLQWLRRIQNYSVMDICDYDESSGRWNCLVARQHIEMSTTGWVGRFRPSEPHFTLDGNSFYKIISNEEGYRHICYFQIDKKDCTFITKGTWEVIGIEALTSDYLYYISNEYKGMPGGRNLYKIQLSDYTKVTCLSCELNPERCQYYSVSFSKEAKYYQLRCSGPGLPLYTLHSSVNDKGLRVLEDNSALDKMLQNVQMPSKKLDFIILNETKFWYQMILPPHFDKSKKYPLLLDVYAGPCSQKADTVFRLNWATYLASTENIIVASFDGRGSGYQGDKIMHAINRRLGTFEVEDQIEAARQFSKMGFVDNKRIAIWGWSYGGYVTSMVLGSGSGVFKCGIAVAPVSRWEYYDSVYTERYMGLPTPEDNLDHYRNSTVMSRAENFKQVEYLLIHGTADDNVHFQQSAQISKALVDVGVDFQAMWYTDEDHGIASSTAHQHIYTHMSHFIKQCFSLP

inhibitory effect of the synthesized peptides on DPP-4 activity (in words) [1]	Substance	IC50 value against DPP-4 [2]
weak inhibitory activity	NEAYFGFPR [synthesized peptide identified from T. molitor flavourzyme hydrolysate; origin Hexamerin 1]	
weak inhibitory activity	GLQFPTRPNF [synthesized peptide; origin 86 kDa early-staged encapsulation inducing protein]	
weak inhibitory activity	SNGLPFPTRP [synthesized peptide identified from T. molitor flavourzyme hydrolysate; origin Hexamerin 1]	
	LPAVTIR	148 mg/L
